# Data taken from PMC3615092, “Identification, Design and Bio-Evaluation of Novel Hsp90 Inhibitors by Ligand-Based Virtual Screening” (PLoS ONE, 2013).
# Key:
# [1] = test system: MCF-7 cells; assay: Western-Blot analysis of Hsp90 client proteins and Hsp70; assay type: cell-based; conditions: MCF-7, 36 h
# Protocol: MCF-7 cells were pretreated with various concentrations of the test compounds. After stimulation, cells were collected; lysed in lysis buffer [50 mM Tris-Cl, pH 7.6, 150 Mm NaCl, 1 mM EDTA, 1% (m/v) Nonidet P-40 (NP-40), 0.2 mM Phenylmethanesulfonyl fluoride (PMSF), 0.1 mM NaF and 1.0 mM dithiothreitol (DTT)], and the supernatant was obtained after centrifugation at 13,000× g for 10 min at 4°C. The concentration of protein in the supernatants was measured by the bicinchoninic acid (BCA) assay. Then equal amounts of protein (50 μg) were separated by 8% or 10% sodium dodecyl sulfate polyacrylamide gel electrophoresis (SDS-PAGE) and transferred onto the PVDF membranes (Millipore, Billerica, MA). The blots were incubated with specific antibodies against the indicated primary antibodies overnight at 4°C followed by IRDyeTM800-conjugated secondary antibody for 1 h at 37°C. Detection was performed by the Odyssey Infrared Imaging System (LI-COR; Lincoln, NE). All blots were stripped and incubated with polyclonal anti-β-actin antibody to ascertain equal loading of proteins.
# [2] = test system: SK-BR-3; assay: Anti-proliferation MTT assay; assay type: cell-based; conditions: Homo sapiens, SK-BR-3, 48 h
# Protocol: (§1) Cell viabilities were measured by a colorimetric assay using 3-(4, 5-dimethylthiaz-ol-2-yl)-2,5-diphenyltetrazoliumbromide (MTT, Sigma, Ltd.) as described previously. Experiments were carried out in triplicate in a parallel manner for each concentration of target compounds and the results were presented as mean ± SE. Control cells were given only culture media. After incubation for 48 h, absorbance (A) was measured at 570 nm. Survival ratio (%) was calculated using the following equation: survival ratio (%) = (Atreatment/Acontrol) × 100%.
# [3] = test system: HepG2; assay: Anti-proliferation MTT assay; assay type: cell-based; conditions: Homo sapiens, HepG2, 48 h
# Protocol: as §1
# [4] = test system: MCF-7; assay: Anti-proliferation MTT assay; assay type: cell-based; conditions: Homo sapiens, MCF7, 48 h
# Protocol: as §1
# [5] = test system: MDA-MB-231; assay: Anti-proliferation MTT assay; assay type: cell-based; conditions: Homo sapiens, MDA-MB-231, 48 h
# Protocol: as §1
# [6] = test system: A549; assay: Anti-proliferation MTT assay; assay type: cell-based; conditions: Homo sapiens, A549, 48 h
# Protocol: as §1
# [7] = test system: HCT116; assay: Anti-proliferation MTT assay; assay type: cell-based; conditions: Homo sapiens, HCT-116, 48 h
# Protocol: as §1
# [8] = biological target: T1, Hsp90 (Homo sapiens, UniProt P07900); assay: Malachite green assay of Hsp90 ATPase activity; assay type: biochemical; conditions: by malachite green assay
# T1 construct: The region encoding full-length Hsp90 was subcloned into pET28a; inferred from the pET28a vector and Ni-NTA purification; made in house; host or cells: E. coli
# Protocol: The region encoding full-length Hsp90 was subcloned into pET28a. Protein expression in E. coli cells were induced with 0.5 mM IPTG. Cells were harvested after 20h of growth at 16°C and then disrupted by sonication. The soluble lysate was clarified by centrifugation and applied to a Ni^2+-nitrilo-triacetic acid (NTA) agarose column in a buffer (50 mM Tris-Cl, 300 mM NaCl, 10 mM Imidazole, 10% [v/v] Glycerol, 10 mM PMSF, 10 mM DTT). Hsp90 Protein was eluted with a linear gradient of 20–1000 mM imidazole. Hsp90 was identified by SDS-PAGE, and the high concentrated fraction was dialyzed against ATPase buffer (20 mM Tris-Cl, pH 7.5; 6 mM MgCl2; 20 mM KCl) and then aliquoted, frozen in liquid nitrogen, stored at −80°C.
# The test compounds were diluted from mother plates (10 mM in 100% (v/v) DMSO) into daughter plates (200 μM in 2.0% (v/v) DMSO); 5 μL of test compound solution was added to each well (equivalent to a final concentration of 40 μM) of the 96-well assay plate. The first and last rows of the 96-well plate contained the appropriate concentration of DMSO were used as blank control. ATP was dissolved in the assay buffer to give a stock concentration of 2.5 mM and stored at room temperature. A 10 μL aliquot of ATP solution was added to each well to give a final assay concentration of 1 mM. Before the usage, Hsp90 protein was thawed on ice and suspended in chilled assay buffer to a stock concentration of 0.45 mg/mL, and the solution was kept on ice. The incubation was started by adding 10 μL of the stock Hsp90 to each well (except for the background wells which received 10 μL of assay buffer), giving a final assay volume of 25 μL. The plates were shaken for approximately 2 min and incubated for 3 h at 37°C.
# The assay procedures were based on the literatures [33]–[35]. […] The reagent is initially dark brown, but on standing for ∼2 h at room temperature changes to a golden yellow and is ready for use. The assay buffer was 100 mM Tris–HCl, 20 mM KCl, 6 mM MgCl2, pH 7.4.
# To stop the ATPase reactions, 80 μL of the malachite green reagent was added to each well.
# [9] = biological target: T1, Hsp90; assay: ATP hydrolysis inhibition, ADP Hunter Plus (ADP fluorescence) assay; assay type: biochemical; conditions: by ADP fluorescence assay
# Protocol: The first and last rows of the 96-well plate contained the appropriate concentration of DMSO were used as blank control. ATP was dissolved in the assay buffer to give a stock concentration of 2.5 mM and stored at room temperature. A 10 μL aliquot of ATP solution was added to each well to give a final assay concentration of 1 mM. Before the usage, Hsp90 protein was thawed on ice and suspended in chilled assay buffer to a stock concentration of 0.45 mg/mL, and the solution was kept on ice. […] The plates were shaken for approximately 2 min and incubated for 3 h at 37°C. The Discover RX ADP Hunter^TM Plus Assay kit (Discoverx, Fremont, CA) was used following the manufacturer's instructions. ATPase reactions were carried out after 3 h at 37°C temperature in presence of different concentrations of compounds. ADP generation was measured using Varioskan multimode microplate spectrophotometer (540 nm excitation and 620 nm emission). […] The background reaction rate was measured in a reaction lacking enzyme or substrate and subtracted from the experimental rates.
smiles,measurement,setting,value
COc1ccccc1N1CCN(CC(O)COCCOc2ccc(Br)cc2)CC1 (stereo not shown) [Compound S13],Hsp70 expression,[1],up-regulates
same,"depletion of Hsp90-dependent client proteins (Her2, Src, Akt, ERK, c-Raf, Hif-1α)",[1],concentration-dependent
same,IC50,[2],3.32 µM
same,IC50,[3],96.6 µM
same,IC50,[4],2.01 µM
same,IC50,[5],14.6 µM
same,IC50,[6],0.83 µM
same,IC50,[7],3.63 µM
same,IC50,[8],3.89 ± 0.54 µM
same,IC50,[9],2.83 µM
